Measurements published in patent EP0188647B1, “Acylated derivatives of cytidine-diphosphate-choline, process for their preparation and their therapeutic use” (NEOPHARMED S.p.A., priority 1985, dated 1986).

[1] = control experiment, oral, 20 µmoles/kg, after 30 minutes, intestinal level

From the text: The required data refer to the distribution of radioactivity in the animal and also to structural identity of the radioactive molecular species present in some of the more significant biological samples (liver, brain, faeces, gastric and intestinal contents).
The scheme of extraction consents the recovery of three different classes of labelled metabolites: • 1) Hydrosoluble metabolites, subsequently analysed by HPLC. • 2) Metabolites with high molecular weights, proteins and nucleic acids, recovered by thermal denaturation in a hydroalcoholic environment. • 3) Lipids, subsequently purified by chromatography on silica.

| SMILES | double labelled CDP-choline administered found at intestinal level [1] | radioactivity present in the dose found at intestinal level [1] | time of maximum uptake in the plasmatic component and in the organs (rat, in vivo, po) | total radioactivity, of that present in the administered dose (rat, in vivo, po) |
| --- | --- | --- | --- | --- |
| C[N+](C)(C)CCOP(=O)(O)OP(=O)([O-])OC[C@H]1O[C@@H](n2ccc(N)nc2=O)[C@H](O)[C@@H]1O [CDP-choline, Cytidine-diphosphate-choline] | 0.2% | not more than 5% | – | – |
| CCCCC(=O)Nc1ccn([C@@H]2O[C@H](COP(=O)(O)OP(=O)([O-])OCC[N+](C)(C)C)[C@@H](OC(=O)CCCC)[C@H]2OC(=O)CCCC)c(=O)n1 [trivaleryl-CDP-choline, N4-valeryl-2',3'-di-O-valeryl-CDP-choline] | – | – | 5 h | 30% |
